Here are results for one compound from ChEMBL document CHEMBL3091293, “The synthesis and biodistribution of [(11)C]metformin as a PET probe to study hepatobiliary transport mediated by the multi-drug and toxin extrusion transporter 1 (MATE1) in vivo” (Bioorg Med Chem, 2013).

What all share (type): ADME, organism-based
The test system of data set [1] is Pancreas. As to the kind of experiment: Biodistribution in pancreas of ddY mouse at 5.6 +/- 2.1 MBq, iv measured per gram of tissue at 60 mins by gamma-ray counting analysis. As to conditions: in vivo, 1 h; call rule not given here.
Data set [2] deals with Mus musculus. Nature of the data set: Biodistribution in remaining body parts of ddY mouse at 5.6 +/- 2.1 MBq, iv measured per gram of tissue at 30 mins by gamma-ray counting analysis. As to conditions: in vivo, 0.5 h.
Data set [3] relates to Mus musculus. Nature of the data set: Biodistribution in stomach wall of ddY mouse at 5.6 +/- 2.1 MBq, iv measured per gram of tissue at 60 mins by gamma-ray counting analysis. As to conditions: in vivo, 1 h.
The test system of data set [4] is Mus musculus. As to the kind of experiment: Biodistribution in small intestine wall of ddY mouse at 5.6 +/- 2.1 MBq, iv measured per gram of tissue at 90 mins by gamma-ray counting analysis. As to conditions: in vivo, 1.5 h.
Data set [5] relates to Mus musculus. As to the kind of experiment: Biodistribution in remaining body parts of ddY mouse at 5.6 +/- 2.1 MBq, iv measured per gram of tissue at 60 mins by gamma-ray counting analysis. As to conditions: in vivo, 1 h.
Data set [6] relates to Pancreas. As to the kind of experiment: Biodistribution in pancreas of ddY mouse at 5.6 +/- 2.1 MBq, iv measured per gram of tissue at 90 mins by gamma-ray counting analysis. As to conditions: in vivo, 1.5 h.
The test system of the next data set is Lung. Nature of the data set: Biodistribution in lung of ddY mouse at 5.6 +/- 2.1 MBq, iv measured per gram of tissue at 30 mins by gamma-ray counting analysis. As to conditions: in vivo, 0.5 h.
In data set [7] the test system is Liver. As to the kind of experiment: Biodistribution in liver of ddY mouse at 14.6 +/- 2.1 MBq, iv measured per gram of tissue at 5 mins by PET image analysis. As to conditions: in vivo.
For data set [8], the system named is Mus musculus. Nature of the data set: Biodistribution in stomach wall of ddY mouse at 5.6 +/- 2.1 MBq, iv measured per gram of tissue at 30 mins by gamma-ray counting analysis. As to conditions: in vivo, 0.5 h.
Data set [9] has as its system Spleen. As to the kind of experiment: Biodistribution in spleen of ddY mouse at 5.6 +/- 2.1 MBq, iv measured per gram of tissue at 45 mins by gamma-ray counting analysis. As to conditions: in vivo, 0.75 h.
In data set [10] the test system is Mus musculus. Nature of the data set: Biodistribution in small intestine wall of ddY mouse at 5.6 +/- 2.1 MBq, iv measured per gram of tissue at 60 mins by gamma-ray counting analysis. As to conditions: in vivo, 1 h.
Data set [11] deals with Spleen. Nature of the data set: Biodistribution in spleen of ddY mouse at 5.6 +/- 2.1 MBq, iv measured per gram of tissue at 90 mins by gamma-ray counting analysis. As to conditions: in vivo, 1.5 h.
Data set [12] concerns Kidney. Nature of the data set: Biodistribution in kidney of ddY mouse at 14.6 +/- 2.1 MBq, iv measured per gram of tissue at 5 mins by PET image analysis. As to conditions: in vivo.
Data set [13] has as its system Mus musculus. Nature of the data set: Biodistribution in large intestine wall of ddY mouse at 5.6 +/- 2.1 MBq, iv measured per gram of tissue at 45 mins by gamma-ray counting analysis. As to conditions: in vivo, 0.75 h.
Data set [14] deals with Mus musculus. As to the kind of experiment: Biodistribution in urinary bladder/urine of ddY mouse at 5.6 +/- 2.1 MBq, iv measured per gram of tissue at 90 mins by gamma-ray counting analysis. As to conditions: in vivo, 1.5 h.
The subject of data set [15] is Liver. Nature of the data set: Drug uptake in liver of ddY mouse at 127 +/- 35 MBq/kg, iv after 2 mins by microPET image analysis. As to conditions: in vivo.
In data set [16] the test system is Mus musculus. As to the kind of experiment: Biodistribution in urinary bladder/urine of ddY mouse at 5.6 +/- 2.1 MBq, iv measured per gram of tissue at 45 mins by gamma-ray counting analysis. As to conditions: in vivo, 0.75 h.
Data set [17] relates to Kidney. Nature of the data set: Biodistribution in kidney of ddY mouse at 5.6 +/- 2.1 MBq, iv measured per gram of tissue at 15 mins by gamma-ray counting analysis. As to conditions: in vivo, 0.25 h.
In data set [18] the test system is Kidney. Nature of the data set: Biodistribution in kidney of ddY mouse at 5.6 +/- 2.1 MBq, iv measured per gram of tissue at 35 mins by gamma-ray counting analysis. As to conditions: in vivo.

Turning to `CN([11CH3])C(=N)NC(=N)N`, the Drug uptake is listed as 0.281 %ID in the data set with Pancreas [1]; 18.728 %ID in the data set on Mus musculus [2]; 0.169 %ID in the data set on Mus musculus [3]; 1.604 %ID in the data set on Mus musculus [4]; 23.827 %ID in the data set with Mus musculus [5]; 0.339 %ID in the data set on Pancreas [6]. Also, the Drug uptake in the data set on Lung is listed as 0.218 %ID; with Liver [7], 4.327 %ID; with Mus musculus [8] it was 0.173 %ID; in the data set with Spleen [9], 0.123 %ID; in the data set on Mus musculus [10] it was 2.543 %ID; in the data set on Spleen [11] it was 0.087 %ID. The Drug uptake was 6.576 %ID in the data set with Kidney [12]; 0.208 %ID in the data set with Mus musculus [13]; 59.056 %ID in the data set with Mus musculus [14]; “Not Active” in the data set on Liver [15]; 78.906 %ID with Mus musculus [16]; 1.181 %ID in the data set with Kidney [17]. This compound also showed a Drug uptake with Kidney [18] of 0.274 %ID.
